Test results as given in publication PMC10673995, “Discovery of a novel cardiac-specific myosin modulator using artificial intelligence-based virtual screening” (Nature Communications, 2023).
Values joined by “and” are separate entries in the source; they are usually repeats but may differ in a detail not shown here. Identical values can stand only once.

Target: bovine cardiac myofibrils (Bos taurus, UniProt Q9BE39)
Assay: mant-ATP chase single nucleotide turnover, cardiac myofibrils;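 note: bovine cardiac myofibrils at 1 mg/mL in PIPES buffer, 20 µM mant-ATP aged 1 min then chased with 20 mM ATP, fluorescence (ex 360, em 450 nm) read every second for 15 min at 25 °C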
[1] = Cardiac myofibrils, individual replicates

Sequence of bovine cardiac myofibrils (Q9BE39 whole entry): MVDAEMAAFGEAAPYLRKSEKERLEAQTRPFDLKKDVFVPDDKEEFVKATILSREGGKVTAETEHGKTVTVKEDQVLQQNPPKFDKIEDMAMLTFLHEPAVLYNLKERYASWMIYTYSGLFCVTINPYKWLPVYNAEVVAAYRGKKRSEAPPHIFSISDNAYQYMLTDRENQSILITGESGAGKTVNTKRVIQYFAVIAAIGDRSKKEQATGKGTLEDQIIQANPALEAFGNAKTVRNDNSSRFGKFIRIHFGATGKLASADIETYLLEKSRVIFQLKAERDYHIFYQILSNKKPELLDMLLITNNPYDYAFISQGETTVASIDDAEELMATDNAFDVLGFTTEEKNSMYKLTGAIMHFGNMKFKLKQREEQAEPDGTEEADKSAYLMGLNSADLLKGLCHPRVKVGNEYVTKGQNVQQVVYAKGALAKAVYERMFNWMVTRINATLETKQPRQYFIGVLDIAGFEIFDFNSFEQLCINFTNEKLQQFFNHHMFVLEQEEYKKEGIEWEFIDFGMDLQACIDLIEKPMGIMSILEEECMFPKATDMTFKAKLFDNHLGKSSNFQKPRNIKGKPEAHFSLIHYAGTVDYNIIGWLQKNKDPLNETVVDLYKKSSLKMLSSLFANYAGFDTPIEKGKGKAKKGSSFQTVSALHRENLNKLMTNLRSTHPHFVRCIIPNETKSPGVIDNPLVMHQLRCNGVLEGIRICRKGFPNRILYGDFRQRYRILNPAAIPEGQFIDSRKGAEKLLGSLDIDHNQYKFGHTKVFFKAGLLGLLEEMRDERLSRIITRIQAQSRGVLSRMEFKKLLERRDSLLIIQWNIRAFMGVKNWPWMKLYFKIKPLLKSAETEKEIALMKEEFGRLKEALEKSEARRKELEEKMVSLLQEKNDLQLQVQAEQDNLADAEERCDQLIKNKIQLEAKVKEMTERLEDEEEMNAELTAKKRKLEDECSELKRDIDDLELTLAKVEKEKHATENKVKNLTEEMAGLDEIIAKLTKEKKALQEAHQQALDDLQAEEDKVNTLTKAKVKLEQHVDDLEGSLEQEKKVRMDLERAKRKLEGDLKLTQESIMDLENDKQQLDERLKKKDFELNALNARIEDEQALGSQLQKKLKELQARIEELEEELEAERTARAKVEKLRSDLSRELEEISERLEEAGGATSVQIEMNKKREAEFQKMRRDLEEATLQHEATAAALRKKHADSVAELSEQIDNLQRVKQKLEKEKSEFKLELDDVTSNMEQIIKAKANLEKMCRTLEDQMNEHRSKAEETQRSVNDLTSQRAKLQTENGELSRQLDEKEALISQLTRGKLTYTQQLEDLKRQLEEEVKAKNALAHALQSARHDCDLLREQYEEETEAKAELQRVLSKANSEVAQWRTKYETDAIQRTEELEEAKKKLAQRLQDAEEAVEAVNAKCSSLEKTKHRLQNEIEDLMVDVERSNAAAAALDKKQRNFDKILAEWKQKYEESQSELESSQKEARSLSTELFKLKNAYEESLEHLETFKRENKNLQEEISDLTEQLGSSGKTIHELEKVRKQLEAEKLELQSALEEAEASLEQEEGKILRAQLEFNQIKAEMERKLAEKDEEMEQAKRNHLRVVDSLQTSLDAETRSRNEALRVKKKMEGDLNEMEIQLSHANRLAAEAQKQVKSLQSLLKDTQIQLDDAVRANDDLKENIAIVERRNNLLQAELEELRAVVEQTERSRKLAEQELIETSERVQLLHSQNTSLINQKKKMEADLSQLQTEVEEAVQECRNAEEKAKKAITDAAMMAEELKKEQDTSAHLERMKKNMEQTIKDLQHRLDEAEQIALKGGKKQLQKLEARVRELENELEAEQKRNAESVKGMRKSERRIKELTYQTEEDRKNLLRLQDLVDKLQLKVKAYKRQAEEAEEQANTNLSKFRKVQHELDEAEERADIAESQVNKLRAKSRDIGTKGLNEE
Sequence of bovine cardiac myofibrils (P85100 whole entry partner): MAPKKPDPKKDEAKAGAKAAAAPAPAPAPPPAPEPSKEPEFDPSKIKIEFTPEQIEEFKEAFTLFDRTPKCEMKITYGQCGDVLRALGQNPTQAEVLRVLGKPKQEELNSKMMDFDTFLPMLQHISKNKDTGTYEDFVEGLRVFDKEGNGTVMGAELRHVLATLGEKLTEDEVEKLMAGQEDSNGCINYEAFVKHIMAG
Sequence of bovine cardiac myofibrils (Q3SZE5 whole entry partner): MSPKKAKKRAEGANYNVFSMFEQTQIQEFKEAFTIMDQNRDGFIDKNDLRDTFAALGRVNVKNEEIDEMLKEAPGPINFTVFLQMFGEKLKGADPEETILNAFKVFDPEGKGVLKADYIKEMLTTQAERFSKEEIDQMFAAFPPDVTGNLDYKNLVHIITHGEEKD

Compound: CCc1cc2c(=O)n(NC(=S)NC(C)C)cnc2s1 [F10]
- effect on the rate of the fast phase: no effect
- kfast (2 μmol L^−1 Mavacamten or 20 μmol L^−1 F10, control 0.0719 ± 0.0193): 0.0552 ± 0.0106 s⁻¹
- kfast [1]: 0.02031 s⁻¹ and 0.02851 s⁻¹ and 0.03852 s⁻¹ and 0.09761 s⁻¹ and 0.08409 s⁻¹ and 0.06218 s⁻¹
- kslow [1]: 0.003333 s⁻¹ and 0.002949 s⁻¹ and 0.001064 s⁻¹ and 0.001853 s⁻¹ and 0.00204 s⁻¹ and 0.001557 s⁻¹
- slow phase [1]: 72.63% and 66.55% and 67.45% and 65.69% and 56.45% and 78.18%
- Bar graph (Figure 3c, individual replicates): 72.63 and 66.55 and 67.45 and 65.69 and 56.45 and 78.18
- Representative Traces (t [s] = 6): 0.8687
- Representative Traces (t [s] = 7): 0.7649
- Representative Traces (t [s] = 8): 0.847
- Representative Traces (t [s] = 9): 0.7441
- Representative Traces (t [s] = 10): 0.7291
- Representative Traces (t [s] = 11): 0.7606
- Representative Traces (t [s] = 12): 0.6903
- Representative Traces (t [s] = 13): 0.6968
- Representative Traces (t [s] = 14): 0.7384
- Representative Traces (t [s] = 96): 0.4594
- Representative Traces (t [s] = 97): 0.4902
- Representative Traces (t [s] = 98): 0.4564
- Representative Traces (t [s] = 99): 0.5227
- Representative Traces (t [s] = 100): 0.5227
- Representative Traces (t [s] = 101): 0.4329
- Representative Traces (t [s] = 102): 0.4816
- Representative Traces (t [s] = 103): 0.4496
- Representative Traces (t [s] = 104): 0.4983
- Representative Traces (t [s] = 105): 0.4303
- Representative Traces (t [s] = 106): 0.4469
- Representative Traces (t [s] = 107): 0.4441
- Representative Traces (t [s] = 108): 0.454
- Representative Traces (t [s] = 109): 0.4003
- Representative Traces (t [s] = 110): 0.4314
- Representative Traces (t [s] = 111): 0.4793
- Representative Traces (t [s] = 112): 0.4152
- Representative Traces (t [s] = 113): 0.4525
- Representative Traces (t [s] = 114): 0.4165
- Representative Traces (t [s] = 115): 0.4344
- Representative Traces (t [s] = 116): 0.416
- Representative Traces (t [s] = 117): 0.4849
- Representative Traces (t [s] = 118): 0.4794
- Representative Traces (t [s] = 119): 0.4668
- Representative Traces (t [s] = 120): 0.4665
- Representative Traces (t [s] = 121): 0.4689
- Representative Traces (t [s] = 122): 0.4838
- Representative Traces (t [s] = 123): 0.4652
- Representative Traces (t [s] = 124): 0.4182
- Representative Traces (t [s] = 125): 0.3966
- Representative Traces (t [s] = 126): 0.4538
- Representative Traces (t [s] = 127): 0.4517
- Representative Traces (t [s] = 128): 0.4361
- Representative Traces (t [s] = 129): 0.4908
- Representative Traces (t [s] = 130): 0.4396
- Representative Traces (t [s] = 131): 0.3944
- Representative Traces (t [s] = 132): 0.397
- Representative Traces (t [s] = 133): 0.4059
- Representative Traces (t [s] = 134): 0.4164
- Representative Traces (t [s] = 135): 0.475
- Representative Traces (t [s] = 136): 0.486
- Representative Traces (t [s] = 137): 0.4478
- Representative Traces (t [s] = 138): 0.507
- Representative Traces (t [s] = 139): 0.3865
- Representative Traces (t [s] = 140): 0.4564
- Representative Traces (t [s] = 141): 0.4199
- Representative Traces (t [s] = 142): 0.4501
- Representative Traces (t [s] = 143): 0.4218
- Representative Traces (t [s] = 144): 0.4033
- Representative Traces (t [s] = 145): 0.441
- Representative Traces (t [s] = 146): 0.3827
- Representative Traces (t [s] = 147): 0.3962
- Representative Traces (t [s] = 148): 0.4486
- Representative Traces (t [s] = 149): 0.4251
- Representative Traces (t [s] = 150): 0.3547
- Representative Traces (t [s] = 151): 0.4491
- Representative Traces (t [s] = 152): 0.3776
- Representative Traces (t [s] = 153): 0.3808
- Representative Traces (t [s] = 154): 0.3286
- Representative Traces (t [s] = 155): 0.4639
- Representative Traces (t [s] = 156): 0.435
- Representative Traces (t [s] = 157): 0.3725
- Representative Traces (t [s] = 158): 0.3522
- Representative Traces (t [s] = 159): 0.4127
- Representative Traces (t [s] = 160): 0.3983
- Representative Traces (t [s] = 161): 0.3945
- Representative Traces (t [s] = 162): 0.3807
- Representative Traces (t [s] = 163): 0.4372
- Representative Traces (t [s] = 164): 0.4557
- Representative Traces (t [s] = 165): 0.4341
- Representative Traces (t [s] = 166): 0.3757
- Representative Traces (t [s] = 167): 0.3677
- Representative Traces (t [s] = 168): 0.4335
- Representative Traces (t [s] = 169): 0.3827
- Representative Traces (t [s] = 170): 0.3934
- Representative Traces (t [s] = 171): 0.3476
- Representative Traces (t [s] = 172): 0.3794
- Representative Traces (t [s] = 173): 0.3525
- Representative Traces (t [s] = 174): 0.3963
- Representative Traces (t [s] = 175): 0.3642
- Representative Traces (t [s] = 176): 0.3906
- Representative Traces (t [s] = 177): 0.3677
- Representative Traces (t [s] = 178): 0.392
- Representative Traces (t [s] = 179): 0.4104
- Representative Traces (t [s] = 180): 0.4065
- Representative Traces (t [s] = 181): 0.4021
- Representative Traces (t [s] = 182): 0.3788
- Representative Traces (t [s] = 183): 0.3953
- Representative Traces (t [s] = 184): 0.397
- Representative Traces (t [s] = 185): 0.4128
- Representative Traces (t [s] = 186): 0.3872
